Substitutions are numbered along the chain they refer to. Active and inactive are the calls of the source. The rule behind the calls is not given here.
How the values were obtained:
[1] = biological target: T1, 4,4'-diapophytoene desaturase (4,4'-diaponeurosporene-forming) (Staphylococcus aureus (strain Newman), UniProt O07855); assay: Inhibition of CrtN in Staphylococcus aureus Newman assessed as reduction in staphyloxanthin levels after 48 hrs by spectrophotometric method-based pigment inhibition assay; design: species or system Staphylococcus aureus subsp. aureus str. Newman
T1 sequence (O07855 whole entry): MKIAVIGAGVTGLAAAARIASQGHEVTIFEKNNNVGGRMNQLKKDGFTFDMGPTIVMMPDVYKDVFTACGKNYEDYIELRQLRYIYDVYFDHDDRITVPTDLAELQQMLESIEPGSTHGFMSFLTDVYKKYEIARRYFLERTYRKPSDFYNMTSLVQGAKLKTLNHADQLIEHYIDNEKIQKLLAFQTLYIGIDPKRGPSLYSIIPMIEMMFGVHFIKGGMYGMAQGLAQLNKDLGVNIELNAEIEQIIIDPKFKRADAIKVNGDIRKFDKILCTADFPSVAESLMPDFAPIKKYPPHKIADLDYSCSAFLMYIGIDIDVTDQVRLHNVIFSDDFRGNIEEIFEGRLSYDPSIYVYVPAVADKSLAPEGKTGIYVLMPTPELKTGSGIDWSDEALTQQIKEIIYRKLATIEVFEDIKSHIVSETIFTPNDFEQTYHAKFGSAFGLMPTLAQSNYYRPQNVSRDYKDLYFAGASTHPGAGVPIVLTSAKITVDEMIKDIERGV

Staphylococcus aureus [2] = assay: Antibacterial activity against vancomycin-intermediate Staphylococcus aureus Mu50 infected in BALB/c mouse assessed as reduction of bacterial burden in liver at 0.4 mg, ip bid administered at 12 hrs prior to bacterial infection dosed at 12 intervals for 4.5 days; type: functional, organism-based
Staphylococcus aureus [3] = assay: Antibacterial activity against vancomycin-intermediate Staphylococcus aureus Mu50 infected in BALB/c mouse assessed as reduction of bacterial burden in liver at 0.4 mg, ip bid for 3.5 days administered 6 hrs post bacterial infection measured 84 hrs post infection; type: functional, organism-based
Staphylococcus aureus [4] = assay: Antibacterial activity against vancomycin-intermediate Staphylococcus aureus Mu50 infected in BALB/c mouse assessed as reduction of bacterial burden in liver at 0.1 mg, ip bid for 3.5 days administered 6 hrs post bacterial infection measured 84 hrs post infection; type: functional, organism-based
Staphylococcus aureus [5] = assay: Antibacterial activity against vancomycin-intermediate Staphylococcus aureus Mu50 infected in BALB/c mouse assessed as reduction of bacterial burden in heart at 0.4 mg, ip bid for 3.5 days administered 6 hrs post bacterial infection measured 84 hrs post infection relative to control; type: functional
Staphylococcus aureus [6] = assay: Antibacterial activity against vancomycin-intermediate Staphylococcus aureus Mu50 infected in BALB/c mouse assessed as reduction of bacterial burden in heart at 0.1 mg, ip bid for 3.5 days administered 6 hrs post bacterial infection measured 84 hrs post infection relative to control; type: functional
Staphylococcus aureus [7] = assay: Antibacterial activity against vancomycin-intermediate Staphylococcus aureus Mu50 infected in BALB/c mouse assessed as reduction of bacterial burden in liver at 0.1 mg, ip bid administered at 12 hrs prior to bacterial infection dosed at 12 intervals for 4.5 days; type: functional, organism-based
[8] = Half life in human liver microsomes at 2 uM by LC-MS/MS analysis; type: ADME, microsome
[9] = biological target: T1, 4,4'-diapophytoene desaturase (4,4'-diaponeurosporene-forming); assay: Inhibition of Staphylococcus aureus Newman […]-tagged CrtN expressed in Escherichia coli BL21(DE3))/pET28a::CrtN assessed as reduction in staphyloxanthin levels using diapophytoene as substrate after overnight incubation; design: species or system Staphylococcus aureus subsp. aureus str. Newman
[10] = Solubility of the compound in water at 10 mg measured after 24 hrs by HPLC method; type: physicochemical
[11] = biological target: T2, 4,4'-diapophytoene desaturase (4,4'-diaponeurosporene-forming) (Staphylococcus aureus (strain MW2), UniProt Q8NUQ6); assay: Inhibition of CrtN in methicillin-resistant Staphylococcus aureus LAC USA300 assessed as reduction in staphyloxanthin levels after 48 hrs by spectrophotometric method-based pigment inhibition assay; design: species or system Staphylococcus aureus subsp. aureus USA300
T2 sequence (Q8NUQ6 whole entry): T1 sequence (O07855 whole entry) with R500Q

[12] = biological target: T3, 4,4'-diapophytoene desaturase (4,4'-diaponeurosporene-forming) (Staphylococcus aureus (strain Mu50 / ATCC 700699), UniProt Q99R76); assay: Inhibition of CrtN in vancomycin-intermediate Staphylococcus aureus Mu50 assessed as reduction in staphyloxanthin levels after 48 hrs by spectrophotometric method-based pigment inhibition assay; design: species or system Staphylococcus aureus subsp. aureus Mu50
T3 sequence (Q99R76 whole entry): T1 sequence (O07855 whole entry)

[13] = biological target: T2, 4,4'-diapophytoene desaturase (4,4'-diaponeurosporene-forming); assay: Inhibition of CrtN in methicillin-resistant Staphylococcus aureus USA400 MW2 assessed as reduction in staphyloxanthin levels after 48 hrs by spectrophotometric method-based pigment inhibition assay; design: species or system Staphylococcus aureus subsp. aureus MW2
[14] = biological target: T1, 4,4'-diapophytoene desaturase (4,4'-diaponeurosporene-forming); assay: Inhibition of CrtN in linezolid-resistant Staphylococcus aureus NRS271 assessed as reduction in staphyloxanthin levels after 48 hrs by spectrophotometric method-based pigment inhibition assay

Structure (SMILES) | IC50 [1] | other results
CN(C/C=C/c1ccc(C(C)(C)C)cc1)Cc1ccc2c(c1)OCCO2 | 156 nM | 
CN[C@H](CC(C)C)C(=O)N[C@H]1C(=O)N[C@@H](CC(N)=O)C(=O)N[C@H]2C(=O)N[C@H]3C(=O)N[C@H](C(=O)N[C@H](C(=O)O)c4cc(O)cc(O)c4-c4cc3ccc4O)[C@H](O)c3ccc(c(Cl)c3)Oc3cc2cc(c3O[C@@H]2O[C@H](CO)[C@@H](O)[C@H](O)[C@H]2O[C@H]2C[C@](C)(N)[C@H](O)[C@H](C)O2)Oc2ccc(cc2Cl)[C@H]1O |  | Activity (Staphylococcus aureus [2]): Active; Activity (Staphylococcus aureus [3]): Active; Activity (Staphylococcus aureus [4]): Active; Activity (Staphylococcus aureus [5]): Active; Activity (Staphylococcus aureus [6]): Active; Activity (Staphylococcus aureus [7]): Active
Cc1ccccc1/C=C/CN(C)Cc1ccc2c(c1)OCCO2 | > 1000 nM | 
CCOc1ccc(/C=C/CN(C)Cc2ccc3c(c2)OCCO3)cc1 | 8.2 nM | 
CN(C/C=C/C1CCCCC1)Cc1ccc2c(c1)OCCO2 | > 1000 nM | 
COc1ccc(/C=C/CN(C)Cc2ccc3c(c2)OCCO3)cc1F | 57.9 nM | 
CN(C/C=C/c1ccc([N+](=O)[O-])cc1)Cc1ccc2c(c1)OCCO2 | 18.9 nM | 
COc1ccc(/C=C/CN(C)Cc2ccc3c(c2)OCCO3)c(F)c1 | 43.5 nM | 
CN(C/C=C/c1cccc2ccccc12)Cc1ccc2c(c1)OCCO2 | > 1000 nM | 
CN(C/C=C/C1CCCC1)Cc1ccc2c(c1)OCCO2 | 321 nM | 
Cc1ncc2n1-c1ccc(Cl)cc1C(c1ccccc1F)=NC2 [MIDAZOLAM] |  | half-life at 2 µM [8]: 4.2 min
COc1ccc(/C=C/CN(C)Cc2ccc3c(c2)OCCO3)cc1 | 48.6 nM | 
CN(C/C=C/c1ccc(Cl)cc1Cl)Cc1ccc2c(c1)OCCO2 | 15 nM | 
CN(C/C=C/c1ccc(C(F)(F)F)cc1)Cc1ccc2c(c1)OCCO2.Cl | 2.9 nM | IC50 [9]: 341 nM; solubility at 24 h [10]: 13.5 mg/mL; IC50 [11]: 5.9 nM; IC50 [12]: 1.2 nM; IC50 [13]: 6.5 nM; IC50 [14]: 1.1 nM
CN(C/C=C/c1ccco1)Cc1ccc2c(c1)OCCO2 | 228 nM | 
CN(C/C=C/c1ccc(C(F)(F)F)c(F)c1)Cc1ccc2c(c1)OCCO2 | 13.7 nM | 
CN(C/C=C/c1ccc(F)cc1)Cc1ccc2c(c1)OCCO2 | 20.1 nM | 
CN(C/C=C/c1ccccc1Cl)Cc1ccc2c(c1)OCCO2 | 90.3 nM | 
CN(C/C=C/c1ccc(-c2ccccc2)cc1)Cc1ccc2c(c1)OCCO2 | 4.1 nM | 
CN(C/C=C/c1ccc(C#N)cc1)Cc1ccc2c(c1)OCCO2 | 19.2 nM | 
CN(C/C=C/c1ccc(Cl)cc1)Cc1ccc2c(c1)OCCO2 | 6.7 nM | 

— ChEMBL document CHEMBL4251700, “Novel Staphyloxanthin Inhibitors with Improved Potency against Multidrug Resistant Staphylococcus aureus” (ACS Med Chem Lett, 2018)
